Reference: article PMC10870298, “Rational Design of Antifungal Peptides Based on the γ-Core Motif of a Neosartorya (Aspergillus) fischeri Antifungal Protein to Improve Structural Integrity, Efficacy, and Spectrum” (ACS Omega, 2024)
Residues, ends and D or L forms follow the SMILES beside them.

Key:
A. fumigatus CBS 101355 = format: cell-based, Aspergillus fumigatus; conditions: CBS 101355, 72 h
Experimental: (§1) The lyophilized and stored peptides were dissolved in sterile ddH2O (5 mg mL^–1). Then, half of the volume of the peptide stock was tested for antifungal activity and stored at −20 °C until RP-HPLC and ECD analyses. This peptide sample is termed the −20 °C sample. The other half volume of the stock was stored at 4 °C for 7 days, tested for antifungal activity, and stored at −20 °C until RP-HPLC and ECD analyses. This peptide sample is referred to as the 4 °C sample.
(§2) MICs of NFAP γ-core peptide derivatives were determined against C. albicans SC5314 and A. fumigatus CBS 101355. These fungi were maintained on yeast peptone dextrose agar (YPD: 10 g L^–1 yeast extract, 20 g L^–1 peptone, 20 g L^–1D-glucose, 15 g L^–1 agar) and malt extract agar (MEA, Sigma-Aldrich) slants at 4 °C, respectively. Susceptibility tests were performed in low cationic medium (LCM: 5 g L^–1D-glucose, 0.25 g L^–1 yeast extract, 0.125 g L^–1 peptone) according to Tóth et al. (2018)[16] and Tóth et al. (2020)[19] for yeasts and molds, respectively, with slight modifications. Briefly, 100 μL NFAP γ-core peptide (0.39–400 μg mL^–1 in two-fold serial dilutions in LCM) was mixed with 100 μL of 2 × 10^5 mL^–1 mid-log phase C. albicans cells or freshly harvested A. fumigatus conidia in LCM in a flat-bottom 96-well microtiter plate (TC Plate 96 Well, Suspension, F; Sarstedt, Nümbrecht, Germany). A mixture of 100 μL of medium (LCM) without NFAP γ-core peptide derivative and 100 μL of cell or conidium suspension served as the untreated growth control, whereas 200 μL of LCM was used for background calibration. The plates were incubated statically for 48 h (C. albicans) or 72 h (A. fumigatus) at 30 °C. The absorbance (OD620) of each well was measured after shaking for 5 s using a microtiter plate reader (SPECTROstar Nano; BMG Labtech, Ortenberg, Germany). The absorbance of the untreated control was taken as 100% growth for the MIC calculation. MIC was defined as the lowest peptide concentration that reduced fungal growth by […] compared with the untreated control. Susceptibility tests were performed in two technical replicates and were repeated at least two times.

C. albicans SC5314 [1] = format: cell-based, Candida albicans; conditions: SC5314, 48 h
Experimental: as §1, §2

[2] = Structural integrity (disulfide bridge formation on storage) by RP-HPLC; format: physicochemical
Experimental: The half volume of the dissolved lyophilized peptides was promptly stored at −20 °C for 7 days. The other half volume of these peptides was stored at 4 °C for 7 days (oxidative condition) and then at −20 °C until RP-HPLC and electronic circular dichroism (ECD) analyses were performed. Herein, these peptide samples are referred to as −20 and 4 °C samples, respectively.
as §1
Crude peptides were purified by semipreparative RP-HPLC using a solvent system of (A) 0.1% TFA and (B) 80% acetonitrile, 0.1% TFA, and a linear gradient from 0 to 30% (B) in 60 min. Purification was performed on a Phenomenex Jupiter Proteo 90 Å column (250 × 10 mm) using a Shimadzu HPLC apparatus (Berlin, Germany). Absorbance was detected at 220 nm. Purity was evaluated by analytical RP-HPLC using a Phenomenex Luna 10 μ C18 100 A column and an Agilent 1100 HPLC instrument (Palo Alto, CA, USA).

C. albicans SC5314 [3] = assay: Cell-killing efficacy: growth kinetics of high-density culture and drop viability on YPD agar; format: cell-based, Candida albicans; conditions: for growth of high-density C. albicans culture: OD600 = 0.2 mid-log cells, LCM, 30 °C, 24 h
Experimental: Compared with MIC determination, monitoring the growth kinetics of high-density cell cultures in the presence of various peptide concentrations allows for detailed insight into the cell-killing efficacy over time and how cysteine modifications influence it. Therefore, the growth of high-density C. albicans cell culture (OD600 = 0.2) was monitored in the presence of 0.5× MIC, 1× MIC, and 2× MIC of the NFAP γ-core peptides.
The experiment was conducted in a flat-bottom 96-well microtiter plate (TC Plate 96 Well, Suspension, F; Sarstedt, Nümbrecht, Germany): 100 μL of OD600 = 0.2 mid-log phase cells prepared in LCM were mixed with 100 μL of 1× MIC, 2× MIC, or 4× MIC of the peptide diluted in LCM. The plates were incubated statically at 30 °C for 24 h. The absorbance (OD600) of each well was then measured after shaking for 5 s every hour using a microtiter plate reader (BioTek Synergy HTX Multi-Mode Microplate Reader; Agilent Technologies, Santa Clara, CA, USA). Untreated cells (100 μL LCM mixed with 100 μL OD600 = 0.2 mid-log phase cells prepared in LCM) served as growth controls. To examine the viability of the treated C. albicans cells, 5–5 μL cultures from each well were dropped onto the YPD agar plate after the last OD600 measurement and allowed to dry before incubation at 30 °C for 24 h. The plates were photographed (Versa Doc Imaging System 4000 MP; Bio-Rad, Hercules, CA, USA). These experiments were repeated two times, involving three technical replicates.

[4] = test system: human cell lines (monocytes, colonic epithelial cells, keratinocytes); conditions: cited from earlier work
Description: (§3) The clinical application of antimicrobial peptides is limited by their potential hemolytic activity, toxicity, immunogenicity, and other side effects.[27] […] Herein, we investigated how cysteine–serine substitution(s) and S-tert-butylation of these peptides influence hemolytic activ ...

sheep blood = conditions: cited from earlier work
Description: as §3

[5] = test system: plant pathogenic filamentous fungi; conditions: previous studies; cited from earlier work
Description: Presumably, these peptides exert an antifungal mechanism through membrane disruption,[17] and the high positive net charge supports this mechanism. Additionally, neither hydrop ...

CC[C@H](C)[C@H](NC(=O)[C@H](CCCCN)NC(=O)[C@H](CS)NC(=O)[C@H](CCCCN)NC(=O)[C@@H](NC(=O)[C@H](CCCCN)NC(=O)[C@@H](NC(=O)[C@H](CCC(=O)O)NC(C)=O)[C@@H](C)CC)[C@@H](C)CC)C(=O)N[C@@H](CCCCN)C(=O)N[C@@H](CCCCN)C(=O)N[C@H](C(=O)N[C@@H](CCCCN)C(=O)N[C@@H](CS)C(=O)N[C@@H](CCCCN)C(N)=O)[C@@H](C)CC [NFAPimpγGZ] (Ac-EIKIKCKIKKIKCK-NH2)
MIC (A. fumigatus CBS 101355): 25 μg mL^–1 | MIC (C. albicans SC5314 [1]): 12.5 μg mL^–1 | oxidation / disulfide bridge formation (in words) ([2]; 4 °C sample: 5 mg mL^–1 in sterile ddH2O stored at 4 °C for 7 days (oxidative condition)): fully oxidized to the cyclic form | share of the peptide with intermolecular disulfide bridges (in words) ([2]; –20 °C sample): one-third | share of the peptide with intramolecular disulfide bridges (in words) ([2]; –20 °C sample): approximately one-third | growth of high-density C. albicans culture (C. albicans SC5314 [3]; 1× MIC): allowed the multiplication of C. albicans cells within 24 h | proportion of cells able to multiply (culture drops on YPD agar after treatment) (C. albicans SC5314 [3]; 2× MIC, 24 h treatment at 30 °C, then 5 μL drops on YPD agar 24 h at 30 °C): highly reduce the proportion of cells able to multiply | growth of high-density C. albicans culture (C. albicans SC5314 [3]; 2× MIC): total or high growth inhibitions | toxicity to various human cell lines [4]: impaired the viability of keratinocytes at higher concentrations | hemolysis (sheep blood): did not cause hemolysis | antifungal activity [5]: effectively inhibit the growth
